The source of these data is US8143242B2, “Malonamide derivatives with antithrombotic activity” (Sanofi-Aventis, priority 2007, dated 2012).

Where a name gives a salt, the structure may show the parent alone.

T1 sequence (P08709 213-466 limits assumed): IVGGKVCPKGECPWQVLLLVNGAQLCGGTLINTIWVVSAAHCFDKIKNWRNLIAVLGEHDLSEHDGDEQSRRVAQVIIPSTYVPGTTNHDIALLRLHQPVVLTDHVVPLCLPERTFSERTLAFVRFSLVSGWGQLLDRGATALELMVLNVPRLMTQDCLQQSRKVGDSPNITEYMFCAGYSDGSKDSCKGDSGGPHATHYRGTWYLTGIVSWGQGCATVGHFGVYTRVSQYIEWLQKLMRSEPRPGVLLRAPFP
T1 sequence (P08709 61-212 limits assumed): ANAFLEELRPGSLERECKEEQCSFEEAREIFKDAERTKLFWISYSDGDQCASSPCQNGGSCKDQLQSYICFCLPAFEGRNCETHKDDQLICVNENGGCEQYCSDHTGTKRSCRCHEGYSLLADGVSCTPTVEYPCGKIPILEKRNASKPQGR
T1 sequence (P13726 33-295 partner): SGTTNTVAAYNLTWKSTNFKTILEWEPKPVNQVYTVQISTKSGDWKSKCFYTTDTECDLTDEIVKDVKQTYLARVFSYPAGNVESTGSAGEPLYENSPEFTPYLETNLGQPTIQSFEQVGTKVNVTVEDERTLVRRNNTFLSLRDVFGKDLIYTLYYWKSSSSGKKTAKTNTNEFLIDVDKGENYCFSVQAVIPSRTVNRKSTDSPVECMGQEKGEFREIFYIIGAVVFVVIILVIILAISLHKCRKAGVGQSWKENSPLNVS

This experiment concerns the target T1, human factor VIIa and TF (factor VIIa/tissue factor) (Homo sapiens, UniProt P08709).
T1 construct: human factor VIIa and TF
Put plainly: Factor VIIa (FVIIa) chromogenic assay. It is filed as biochemical. The conditions noted are these: chromogenic substrate S-2288 500 μM; 5 nM FVIIa, 10 nM TF; 25° C.; 15 minute preincubation; pH 8.15. The procedure: The ability of the compounds of the formulae I and Ia to inhibit factor VIIa or other enzymes like factor Xa, thrombin, plasmin, or trypsin can be assessed by determining the concentration of the compound of the formulae I and Ia that inhibits enzyme activity by 50%, i. e. the IC50 value, which is related to the inhibition constant Ki. Purified enzymes are used in chromogenic assays. The concentration of inhibitor that causes a 50% decrease in the rate of substrate hydrolysis is determined by linear regression after plotting the relative rates of hydrolysis (compared to the uninhibited control) versus the log of the concentration of the compound of formulae I and Ia. For calculating the inhibition constant Ki, the IC50 value is corrected for competition with substrate using the formula Ki=IC50/{1+(substrate concentration/Km)} wherein Km is the Michaelis-Menten constant (Chen and Prusoff, Biochem. Pharmacol. 22 (1973), 3099-3108; I. H. Segal, Enzyme Kinetics, 1975, John Wiley & Sons, New York, 100-125; which are incorporated herein by reference).
Factor VIIa (FVIIa) Assay
The inhibitory activity (expressed as inhibition constant Ki(FVIIa)) of the compounds of formulae I and Ia towards factor VIIa/tissue factor activity was determined using a chromogenic assay essentially as described previously (J. A. Ostrem et al., Biochemistry 37 (1998) 1053-1059 which is incorporated herein by reference). Kinetic assays were conducted at 25° C. in half-area microtiter plates (Costar Corp., Cambridge, Ma.) using a kinetic plate reader (Molecular Devices Spectramax 250). A typical assay consisted of 25 μl human factor VIIa and TF (5 nM and 10 nM, respective final concentration) combined with 40 μl of inhibitor dilutions in 10% DMSO/TBS-PEG buffer (50 mM Tris, 15 mM NaCl, 5 mM CaCl2, 0.05% PEG 8000, pH 8.15). Following a 15 minute preincubation period, the assay was initiated by the addition of 35 μl of the chromogenic substrate S-2288 (D-Ile-Pro-Arg-p-nitroanilide, Pharmacia Hepar Inc., 500 μM final concentration).
As for `C[C@H](NC(=O)CC(=O)Nc1ccc(C(=N)N)cc1)c1ccc(Oc2cncc(C(=O)O)c2)c(Br)c1` [Example 1, 5-(2-Bromo-4-{(S)-1-[2-(4-carbamimidoyl-phenylcarbamoyl)-acetylamino]-ethyl}-phenoxy)-nicotinic acid*acetic acid salt], affinity was put at a Ki of 41 nM.
Turning to `CC(NC(=O)CC(=O)Nc1ccc(C(=N)N)cc1)c1ccc(Oc2cccc(CO)c2)c(Br)c1` (centres unmarked) [Example 2, N-{1-[3-Bromo-4-(3-hydroxymethyl-phenoxy)-phenyl]-ethyl}-N′-(4-carbamimidoyl-phenyl)-malonamide*trifluoro-acetic acid salt], the inhibitory constant (Ki) came out at 171 nM.
Then `CC(NC(=O)CC(=O)Nc1ccc(C(=N)N)cc1)c1ccc(OCCCCCC(=O)O)c(Br)c1` (centres unmarked) [Example 3], with 169 nM; and `COCCOc1ccc([C@H](C)NC(=O)CC(=O)Nc2ccc(C(=N)N)cc2)cc1C(F)(F)F` [Example 10, N-(4-Carbamimidoyl-phenyl)-N′—{(S)-1-[4-(2-methoxy-ethoxy)-3-trifluoromethyl-phenyl]-ethyl}-malonamide], with 24 nM; and `CC(C)OCCOc1ccc(C(C)NC(=O)CC(=O)Nc2ccc(C(=N)N)cc2)cc1C(F)(F)F` (centres unmarked) [Example 24], with 61 nM.
Compound `C[C@H](NC(=O)CC(=O)Nc1ccc(C(=N)N)cc1)c1ccc(OCCO)c(C(F)(F)F)c1` [Example 26] showed a Ki of 47 nM.
As for `CC(NC(=O)CC(=O)Nc1ccc(C(=N)N)cc1)c1ccc(S(=O)(=O)N2CCOCC2)c(C(F)(F)F)c1` (centres unmarked) [Example 28, N-(4-Carbamimidoyl-phenyl)-N′-{1-[4-(morpholine-4-sulfonyl)-3-trifluoromethyl-phenyl]-ethyl}-malonamide*trifluoro-acetic acid salt], the figure is 55 nM; as for `CC(NC(=O)CC(=O)Nc1ccc(C(=N)N)cc1)c1ccc(OCCCN2CCCC2=O)c(C(F)(F)F)c1` (centres unmarked) [Example 44], 78 nM; as for `COC1CCC(Oc2ccc(C(C)NC(=O)CC(=O)Nc3ccc(C(=N)N)cc3)cc2C(F)(F)F)CC1` (centres unmarked) [Example 50], 80 nM.
Turning to `CC(NC(=O)CC(=O)Nc1ccc(C(=N)N)cc1)c1ccc(OCCCCO)c(C(F)(F)F)c1` (centres unmarked) [Example 51], the affinity, expressed as Ki, was 122 nM.
As for `CC(NC(=O)CC(=O)Nc1ccc(C(=N)N)cc1)c1ccc(OCc2ccoc2)c(Br)c1` (centres unmarked) [Example 52], the figure is 87 nM.
Then `Cc1ncsc1CCOc1ccc(C(C)NC(=O)CC(=O)Nc2ccc(C(=N)N)cc2)cc1Br` (centres unmarked) [Example 61], with 87 nM; and `CC(NC(=O)CC(=O)Nc1ccc(C(=N)N)cc1)c1ccc(S(=O)(=O)Cc2ccncc2)c(Cl)c1` (centres unmarked) [Example 67], with 588 nM.
Then `CC(NC(=O)CC(=O)Nc1ccc(C(=N)N)cc1)c1ccc(S(=O)(=O)c2ccncc2)c(C(F)(F)F)c1` (centres unmarked) [Example 74, N-(4-Carbamimidoyl-phenyl)-N′-{1-[4-(pyridine-4-sulfonyl)-3-trifluoromethyl-phenyl]-ethyl}-malonamide*trifluoro-acetic acid salt], with 36 nM.
Turning to `COCCNS(=O)(=O)c1ccc([C@H](C)NC(=O)CC(=O)Nc2ccc(C(=N)N)cc2)cc1C(F)(F)F` [Example 75], the Ki is 37 nM.
Then `COCCN(C)S(=O)(=O)c1ccc([C@H](C)NC(=O)CC(=O)Nc2ccc(C(=N)N)cc2)cc1C(F)(F)F` [Example 76], with 27 nM; and `C[C@H](NC(=O)CC(=O)Nc1ccc(C(=N)N)cc1)c1ccc(S(=O)(=O)N2CCOC[C@@H]2C)c(C(F)(F)F)c1` [Example 112], with 29 nM; and `C[C@H](NC(=O)CC(=O)Nc1ccc(C(=N)N)cc1)c1ccc(OC2CCOCC2)c(-c2ccc(Cl)s2)c1` [Example 113], with 7 nM.
Then `C[C@H](NC(=O)CC(=O)Nc1ccc(C(=N)N)cc1)c1ccc(S(=O)(=O)N2CCOCC2)c(Br)c1` [Example 117], with 30 nM.
Then “N-(4-Carbamimidoyl-phenyl)-N′—[(S)-1-(3-trifluoromethanesulfonyl-phenyl)-ethyl]-malonamide*trifluoro-acetic acid salt [Example 77]”, with 99 nM.
